Source: paper PMC10996005, “Identification and Development of Cyclic Peptide Inhibitors of Hypoxia Inducible Factors 1 and 2 That Disrupt Hypoxia-Response Signaling in Cancer Cells” (Journal of the American Chemical Society, 2024)
Where a SMILES comes first, the peptide text is derived from it. [ ]: non-standard residue; d: D form. Phe(4-F) = N[C@@H](Cc1ccc(F)cc1)C(=O)O; Phe(4-I) = N[C@@H](Cc1ccc(I)cc1)C(=O)O; hPhe = N[C@@H](CCc1ccccc1)C(=O)O; Nle = CCCC[C@H](N)C(=O)O; Abu = CC[C@H](N)C(=O)O; Aib = CC(C)(N)C(=O)O

What was measured:
HIF-1α PAS-B domain = target: T1, HIF-1α PAS-B domain (Homo sapiens, UniProt Q16665); experiment: MST binding to the PAS-B domain of HIF-1α; settings: for Kd: mean ± SEM, n = 2 (n = 1 for most C1 analogues, n = 3 in Figure S2), read-out: KD for HIF-1α PAS-B
T1 construct: made in house
T1 sequence (Q16665 238-349 limits assumed): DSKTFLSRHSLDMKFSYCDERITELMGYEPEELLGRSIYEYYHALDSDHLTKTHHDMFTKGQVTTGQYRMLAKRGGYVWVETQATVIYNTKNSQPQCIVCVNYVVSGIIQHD
Method: (§1) All reagents were purchased from Fisher Scientific or Sigma Aldrich UK unless specified otherwise.
(§2) Restriction enzymes and microbiology reagents were purchased from New England Biolabs Inc., Fisher Scientific (UK) or Promega (UK) and were used as directed by the manufacturer. Primers and oligonucleotides were synthesised by Integrated DNA Technologies (UK). DNA sequencing was carried out by Eurofins MWG Operon (Germany).
(§3) Construction of the RTHS and SICLOPPS library, screening, purification of recombinant HIF proteins, and the PLA was conducted as previously described in Miranda et al., J. Am. Chem. Soc., 2013, 135(28); […]
(§4) Protein labelling with MST dye
(§5) Protein was buffer exchanged from storage buffer into labelling buffer (0.1 M NaHCO3, pH 8.5) using a PD spintrap G-25 column (GE healthcare). The protein concentration was then adjusted to 20 µM.
(§6) The commercially sourced MST dye (NanoTemper) was prepared as a 470 µM solution in DMSO, which was then further diluted to 60 µM using labelling buffer. To the protein solution was added an equal volume of dye solution, and the labelling reaction was left for 1 hour in the dark at room temperature.
(§7) The labelled protein was separated from unreacted dye by elution through a PD minitrap G-25 column (GE healthcare). Labelled protein was then aliquoted and stored at -80 °C. Extent of labelling was measured by the absorbance obtained using the UV-vis mode on a NanoDrop ND-1000 Spectrophotometer (NanoDrop Technologies, USA).
(§8) Labelled protein was thawed on ice and diluted to 50 nM in assay buffer containing 50 mM Tris pH 8.0, 150 mM NaCl, 5% (v/v) glycerol, 1 mM TCEP and 0.05% TWEEN-20. The protein solution was then centrifuged at 12000 rpm for 15 minutes at 4 °C and left on ice. Compounds were prepared and serially diluted in DMSO at 10x assay concentration, before diluting to 2x assay concentration in assay buffer.
(§9) The 2x compound solutions were then mixed 1:1 (v/v) with 50 nM labelled protein solution and left to incubate for 1 hour at room temperature. Solutions were then loaded into Monolith NT.115 Premium Capillaries (NanoTemper) and placed in the sample tray. MST experiments were carried out

HIF-2α PAS-B domain = target: T2, HIF-2α PAS-B domain (Homo sapiens, UniProt Q99814); experiment: MST binding to the PAS-B domain of HIF-2α; settings: MST; for Kd: mean (n = 2) ± SEM
T2 construct: made in house
T2 sequence (Q99814 240-350 limits assumed): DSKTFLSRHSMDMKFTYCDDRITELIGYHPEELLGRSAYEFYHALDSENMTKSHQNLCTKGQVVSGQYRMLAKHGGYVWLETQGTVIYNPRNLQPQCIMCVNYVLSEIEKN
Method: as §1, §2, §3, §4, §5, §6, §7, §8, §9

Row | SMILES | Kd (HIF-1α PAS-B domain; MST) [µM] | other results
1 | CC[C@H](C)[C@@H]1NC(=O)[C@H](CC(C)C)NC(=O)[C@H](CCCNC(=N)N)NC(=O)[C@H](CCSC)NC(=O)[C@H](Cc2ccccc2)NC(=O)[C@H]([C@@H](C)CC)NC1=O [M, cyclo-MRLIIF] (cyclo(FMRLII)) | > 100 | 
2 | CC[C@H](C)[C@@H]1NC(=O)[C@H](CC(C)C)NC(=O)[C@H](C)NC(=O)[C@H](CS)NC(=O)[C@H](Cc2ccccc2)NC(=O)[C@H]([C@@H](C)CC)NC1=O [cyclo-CALIIF] (cyclo(ALIIFC)) | 30.6 ± 0.3 | Kd (HIF-2α PAS-B domain): 12.5 ± 0.4 µM
3 | CC[C@H](C)[C@@H]1NC(=O)[C@H](CC(C)C)NC(=O)[C@H](CCCNC(=N)N)NC(=O)[C@H](CO)NC(=O)[C@H](Cc2ccccc2)NC(=O)[C@H]([C@@H](C)CC)NC1=O [S, cyclo-SRLIIF] (cyclo(FSRLII)) | > 100 | 
4 | CC[C@H](C)[C@H](NC(C)=O)C(=O)N[C@@H](Cc1ccc(I)cc1)C(=O)N[C@@H](CS)C(N)=O [Ac-I(4-iodo)FC-NH2] (Ac-Ile-[Phe(4-I)]-Cys-NH2) | 21.5 ± 3 | improvement in HIF-1α affinity over the parent tripeptide (HIF-1α PAS-B domain; MST KD ratio vs Ac-IFC-NH2): ~3 fold
5 | CC[C@H](C)[C@@H]1NC(=O)[C@H](CC(C)C)NC(=O)[C@H](CCCNC(=N)N)NC(=O)[C@H](CS)NC(=O)[C@H](Cc2ccccc2)NC(=O)C(C)(C)NC1=O [Aib, cyclo-CRLIAibF] (cyclo([Aib]FCRLI)) | 22.4 ± 0.1 | 
6 | CC[C@H](C)[C@@H]1NC(=O)[C@H](CC(C)C)NC(=O)[C@H](CCCCN)NC(=O)[C@H](CS)NC(=O)[C@H](Cc2ccccc2)NC(=O)[C@H]([C@@H](C)CC)NC1=O [cyclo-CKLIIF] (cyclo(CKLIIF)) |  | Hill slope of binding curve to HIF-1α (HIF-1α PAS-B domain; MST): 1.33; Hill slope of binding curve to HIF-2α (HIF-2α PAS-B domain): 1.38
7 | CC[C@@H]1NC(=O)[C@H]([C@@H](C)CC)NC(=O)[C@H](CC(C)C)NC(=O)[C@H](CCCNC(=N)N)NC(=O)[C@H](CS)NC(=O)[C@H](Cc2ccccc2)NC1=O [Abu, cyclo-CRLIAbuF] (cyclo([Abu]FCRLI)) | 73.4 ± 4.8 | 
8 | CC[C@H](C)[C@@H]1NC(=O)[C@H](CC(C)C)NC(=O)[C@H](CCCNC(=N)N)NC(=O)[C@H](CS)NC(=O)[C@H](Cc2ccccc2)NC(=O)[C@H]([C@@H](C)CC)NC1=O [cyclo-CRLIIF] (cyclo(CRLIIF)) |  | Kd (HIF-2α PAS-B domain): 10.9 ± 1.1 µM
9 | CC[C@H](C)[C@@H]1NC(=O)[C@H](CC(C)C)NC(=O)[C@H](CCCNC(=N)N)NC(=O)[C@H](CSC)NC(=O)[C@H](Cc2ccccc2)NC(=O)[C@H]([C@@H](C)CC)NC1=O [C(Me), cyclo-C(Me)RLIIF] (cyclo(C(Me)RLIIF)) | > 50 | 

More lines, in order of falling Kd (HIF-1α PAS-B domain; MST), values ahead:

Row | Kd (HIF-1α PAS-B domain; MST) [µM] | SMILES | other results
10 | 15.9 ± 0.3 | CC[C@H](C)[C@@H]1NC(=O)[C@H](CC(C)C)NC(=O)[C@H](CCCNC(=N)N)NC(=O)[C@H](CS)NC(=O)[C@H](Cc2ccccc2)NC(=O)[C@H](C(C)C)NC1=O [V, cyclo-CRLIVF] (cyclo(CRLIVF)) | 
11 | 11.4 ± 0.4 | CC[C@H](C)[C@@H]1NC(=O)[C@H](CC(C)C)NC(=O)[C@H](CCCNC(=N)N)NC(=O)[C@H](CS)NC(=O)[C@H](Cc2ccccc2)NC(=O)[C@H](CC(C)C)NC1=O [L, cyclo-CRLILF] (cyclo(CRLILF)) | 
12 | 7.5 ± 0.9 | CCCC[C@@H]1NC(=O)[C@H]([C@@H](C)CC)NC(=O)[C@H](CC(C)C)NC(=O)[C@H](CCCNC(=N)N)NC(=O)[C@H](CS)NC(=O)[C@H](Cc2ccccc2)NC1=O [Nle, cyclo-CRLINleF] (cyclo(CRLI[Nle]F)) | 
13 | 7.4 ± 0.1 | CC[C@H](C)[C@@H]1NC(=O)[C@H](CC(C)C)NC(=O)[C@H](CCCNC(=N)N)NC(=O)[C@H](CS)NC(=O)[C@H](Cc2ccc(O)cc2)NC(=O)[C@H]([C@@H](C)CC)NC1=O [OH, cyclo-CRLIIY] (cyclo(CRLIIY)) | 
14 | 1.7 ± 0.2 | CC[C@H](C)[C@@H]1NC(=O)[C@H](CC(C)C)NC(=O)[C@H](CCCNC(=N)N)NC(=O)[C@H](CS)NC(=O)[C@H](Cc2ccc(F)cc2)NC(=O)[C@H]([C@@H](C)CC)NC1=O [F, cyclo-CRLII(4-F)F] (cyclo(CRLII[Phe(4-F)])) | 
15 | 1.2 ± 0.7 | CC[C@H](C)[C@@H]1NC(=O)[C@H](CC(C)C)NC(=O)[C@H](CCCNC(=N)N)NC(=O)[C@H](CS)NC(=O)[C@H](CCc2ccccc2)NC(=O)[C@H]([C@@H](C)CC)NC1=O [hF, cyclo-CRLIIhF] (cyclo(CRLII[hPhe])) | improvement in HIF-1α binding affinity compared to the parent cyclic peptide cyclo-CRLIIF (HIF-1α PAS-B domain; MST KD ratio): 3 fold
